Columns and labels:
Assay in all cases: combination Emax (second highest fraction inhibited in the dose matrix, 72 h); higher = more inhibition; extreme values may be limits of the assay
[1] = system: MEG-01 (Chronic Myelogenous Leukemia)
Outline: (§1)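 Bliss excess equals the observed combination effect minus the expected value EA + EB − EA·EB, where EA and EB are the effects of each agent alone. Combination Emax is the second-highest inhibition within the matrix. Inhibition was scaled from CellTiter-Glo 2.0 luminescence, with 0 set by vehicle wells and 1 by blank wells, after 72 hours of two-drug dosing of cells plated in 1536-well plates.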

[2] = system: WSU-DLCL2 (B-Cell Non-Hodgkin's Lymphoma)
Outline: as §1

[3] = system: JHH-6 (Hepatocellular Carcinoma)
Outline: as §1

EW-22 (Ewing's Sarcoma) = system: EW-22 (Ewing's Sarcoma)
Outline: as §1

[4] = system: SK-UT-1 (Other Solid Carcinomas)
Outline: as §1

[5] = system: SW948 (Colorectal Carcinoma)
Outline: as §1

MCF7 (Breast Carcinoma) = system: MCF7 (Breast Carcinoma)
Outline: as §1

[6] = system: SW48 (Colorectal Carcinoma)
Outline: as §1

[7] = system: DOK (Oral Cavity Carcinoma)
Outline: as §1

[8] = system: HCC-827 (Lung Adenocarcinoma)
Outline: as §1

HCC38 (Breast Carcinoma) = system: HCC38 (Breast Carcinoma)
Outline: as §1

A172 (Glioblastoma) = system: A172 (Glioblastoma)
Outline: as §1

CS1 (Chondrosarcoma) = system: CS1 (Chondrosarcoma)
Outline: as §1

[9] = system: SK-LMS-1 (Other Solid Carcinomas)
Outline: as §1

SK-MEL-1 (Melanoma) = system: SK-MEL-1 (Melanoma)
Outline: as §1

[10] = system: D-283MED (Other Solid Carcinomas)
Outline: as §1

H4 (Low Grade Glioma) = system: H4 (Low Grade Glioma)
Outline: as §1

[11] = system: ETK-1 (Biliary Tract Carcinoma)
Outline: as §1

[12] = system: TYK-nu (Ovarian Carcinoma)
Outline: as §1

Row | Structure (SMILES) | combination Emax [1] | combination Emax [2] | combination Emax [3] | combination Emax (EW-22 (Ewing's Sarcoma)) | combination Emax [4] | combination Emax [5] | combination Emax (MCF7 (Breast Carcinoma)) | combination Emax [6] | combination Emax [7] | combination Emax [8] | combination Emax (HCC38 (Breast Carcinoma)) | combination Emax (A172 (Glioblastoma)) | combination Emax (CS1 (Chondrosarcoma)) | combination Emax [9] | combination Emax (SK-MEL-1 (Melanoma)) | combination Emax [10] | combination Emax (H4 (Low Grade Glioma)) | combination Emax [11] | combination Emax [12]
1 | CC(=O)c1c(C)c2cnc(Nc3ccc(N4CCNCC4)cn3)nc2n(C2CCCC2)c1=O [Palbociclib] + CC1(C)CCC(CN2CCN(c3ccc(C(=O)NS(=O)(=O)c4ccc(NCC5CCOCC5)c([N+](=O)[O-])c4)c(Oc4cnc5[nH]ccc5c4)c3)CC2)=C(c2ccc(Cl)cc2)C1 [Venetoclax] (first compound max 10 µM, 7x7, partner max 1 µM) | 0.484 | 0.98 | 0.227 | 0.347 | 0.108 | 0.382 | 0.339 | 0.313 | 0.126 | 0.168 | 0.0554 | 0.457 | 0.354 | 0.147 | 0.242 | 0.668 | 0.597 | 0.281 | 0.401
2 | CC(=O)c1c(C)c2cnc(Nc3ccc(N4CCNCC4)cn3)nc2n(C2CCCC2)c1=O [Palbociclib] + Cc1c2c(nn1C)CSCc1cc(n(C)n1)CSc1cc(c3ccccc3c1)OCCCc1c(C(=O)O)n(C)c3c-2c(Cl)ccc13 [AZD5991] (first compound max 10 µM, 7x7, partner max 1 µM) | 0.668 | 0.991 | 0.338 | 0.515 | 0.223 | 0.406 | 0.574 | 0.409 | 0.311 | 0.197 | 0.192 | 0.614 | 0.304 | 0.282 | 0.262 | 0.797 | 0.601 | 0.303 | 0.405
3 | CC(=O)c1c(C)c2cnc(Nc3ccc(N4CCNCC4)cn3)nc2n(C2CCCC2)c1=O [Palbociclib] + Cn1cnc2c(F)c(Nc3ccc(Br)cc3Cl)c(C(=O)NOCCO)cc21 [Selumetinib] (first compound max 10 µM, 7x7, partner max 10 µM) | 0.855 | 0.834 | 0.443 | 0.25 | 0.137 | 0.665 | 0.366 | 0.626 | 0.5 | 0.22 | 0.139 | 0.425 | 0.408 | 0.437 | 0.83 | 0.582 | 0.632 | 0.347 | 0.584
4 | C[C@@H](c1ccc2nccn2c1)n1nnc2ncc(-c3cnn(C)c3)nc21 [Savolitinib] + CC1(C)CCC(CN2CCN(c3ccc(C(=O)NS(=O)(=O)c4ccc(NCC5CCOCC5)c([N+](=O)[O-])c4)c(Oc4cnc5[nH]ccc5c4)c3)CC2)=C(c2ccc(Cl)cc2)C1 [Venetoclax] (first compound max 1 µM, 7x7, partner max 1 µM) | 0.0651 | 0.304 | 0.0411 | 0.173 | 0.149 | 0.166 | 0.129 | 0.177 | 0.116 | 0.266 | 0.158 | 0.145 | 0.343 | 0.223 | 0.158 | 0.126 | 0.218 | 0.0864 | 0.168
5 | C[C@@H](c1ccc2nccn2c1)n1nnc2ncc(-c3cnn(C)c3)nc21 [Savolitinib] + Cc1c2c(nn1C)CSCc1cc(n(C)n1)CSc1cc(c3ccccc3c1)OCCCc1c(C(=O)O)n(C)c3c-2c(Cl)ccc13 [AZD5991] (first compound max 1 µM, 7x7, partner max 1 µM) | 0.148 | 0.985 | 0.103 | 0.271 | 0.174 | 0.215 | 0.49 | 0.24 | 0.372 | 0.283 | 0.207 | 0.112 | 0.266 | 0.223 | 0.0746 | 0.725 | 0.298 | 0.141 | 0.295
6 | Cn1cnc2c(F)c(Nc3ccc(Br)cc3Cl)c(C(=O)NOCCO)cc21 [Selumetinib] + C=CCn1c(=O)c2cnc(Nc3ccc(N4CCN(C)CC4)cc3)nc2n1-c1cccc(C(C)(C)O)n1 [AZD1775] (first compound max 10 µM, partner max 1 µM) | 0.974 | 0.961 | 0.297 | 0.573 | 0.58 | 0.79 | 0.247 | 0.433 | 0.618 | 0.377 | 0.377 | 0.365 | 0.386 | 0.599 | 0.896 | 0.956 | 0.739 | 0.384 | 0.715
7 | Cn1cnc2c(F)c(Nc3ccc(Br)cc3Cl)c(C(=O)NOCCO)cc21 [Selumetinib] + CC(C)n1c(=O)n(C)c2cnc3cc(F)c(-c4ccc(OCCCN5CCCCC5)nc4)cc3c21 [AZD1390] (first compound max 10 µM, 7x7, partner max 0.3 µM) | 0.671 | 0.14 | 0.168 | 0.128 | 0.153 | 0.698 | 0.084 | 0.38 | 0.416 | 0.195 | 0.116 | 0.257 | 0.256 | 0.264 | 0.838 | 0.148 | 0.13 | 0.122 | 0.548

Reference: the supplement of paper PMC11061612
